Reference: patent US20220062240A1, “METHODS OF TREATING CANCER USING A CLK INHIBITOR” (BioSplice Therapeutics, Inc., priority 2018, published 2022)
Read-outs that look alike come from different tables or passages of the source.

Columns and labels:
[1] = test system: pancreatic cancer (8 cell lines); assay: CellTiter-Glo Viability Assay, pancreatic cancer; type: cell-based; details: Homo sapiens, inhibition of cancer cell proliferation
CLK2 = target: T1, CLK2 (Homo sapiens, UniProt P49760); assay: CLK2 kinase activity assay (Z-lyte, Ser/Thr 6 peptide); type: biochemical; details: recombinant CLK2 kinase, ATP 60 μM; read-out: EC50
T1 construct: purchased Thermo Fisher (Life Technologies), Z'-LYTE Kinase Assay Kits
T1 sequence (P49760 whole entry): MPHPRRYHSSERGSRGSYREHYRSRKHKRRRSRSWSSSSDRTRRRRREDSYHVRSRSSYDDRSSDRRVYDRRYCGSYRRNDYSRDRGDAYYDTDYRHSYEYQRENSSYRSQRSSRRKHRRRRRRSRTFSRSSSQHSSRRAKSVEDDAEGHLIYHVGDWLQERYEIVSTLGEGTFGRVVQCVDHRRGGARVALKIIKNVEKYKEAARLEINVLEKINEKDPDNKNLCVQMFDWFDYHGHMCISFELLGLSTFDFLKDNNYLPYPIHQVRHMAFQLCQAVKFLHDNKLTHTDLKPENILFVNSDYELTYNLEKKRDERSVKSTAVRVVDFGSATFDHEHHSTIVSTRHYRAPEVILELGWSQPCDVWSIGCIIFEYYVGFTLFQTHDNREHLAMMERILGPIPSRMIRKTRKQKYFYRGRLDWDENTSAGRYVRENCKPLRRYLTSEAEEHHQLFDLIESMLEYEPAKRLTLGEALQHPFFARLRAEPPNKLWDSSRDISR
Protocol: All reactions were performed in duplicate.

[2] = test system: ovarian cancer (4 cell lines); assay: CellTiter-Glo Viability Assay, ovarian cancer; type: cell-based; details: Homo sapiens, inhibition of cancer cell proliferation
[3] = test system: colorectal cancer (6 cell lines); assay: CellTiter-Glo Viability Assay, colorectal cancer; type: cell-based; details: Homo sapiens, inhibition of cancer cell proliferation
[4] = test system: haematopoietic & lymphoid tumors (13 cell lines); assay: CellTiter-Glo Viability Assay, haematopoietic & lymphoid tumors; type: cell-based; details: Homo sapiens, inhibition of cancer cell proliferation
HCC1599 = assay: CellTiter-Glo Viability Assay, breast cancer; type: cell-based; details: Homo sapiens, 96 h; HCC1599, breast cancer, four days; read-out: EC50
MCF7 = assay: CellTiter-Glo Viability Assay, breast cancer; type: cell-based; details: Homo sapiens, 96 h; MCF7, breast cancer, four days; read-out: EC50
MDA-MB-231-Luc = assay: CellTiter-Glo Viability Assay, breast cancer; type: cell-based; details: Homo sapiens, 96 h; MDA-MB-231-Luc, breast cancer, four days; read-out: EC50
ZR-75-1 = assay: CellTiter-Glo Viability Assay, breast cancer; type: cell-based; details: Homo sapiens, 96 h; ZR-75-1, breast cancer, four days; read-out: EC50
CAMA1 = assay: CellTiter-Glo Viability Assay, breast cancer; type: cell-based; details: Homo sapiens, CAMA-1, 96 h; CAMA1, breast cancer, four days; read-out: EC50
BT-549 = assay: CellTiter-Glo Viability Assay, breast cancer; type: cell-based; details: Homo sapiens, 96 h; BT-549, breast cancer, four days; read-out: EC50
DU4475 = assay: CellTiter-Glo Viability Assay, breast cancer; type: cell-based; details: Homo sapiens, DU-4475, 96 h; DU4475, breast cancer, four days; read-out: EC50
T47D = assay: CellTiter-Glo Viability Assay, breast cancer; type: cell-based; details: Homo sapiens, 96 h, breast cancer, four days, read-out: EC50
[5] = test system: prostate cancer (5 cell lines); assay: CellTiter-Glo Viability Assay, prostate cancer; type: cell-based; details: Homo sapiens
[6] = test system: lung cancer (4 cell lines); assay: CellTiter-Glo Viability Assay, lung cancer; type: cell-based; details: Homo sapiens, inhibition of cancer cell proliferation
CLK3 = CLK3 (Homo sapiens, UniProt P49761); assay: CLK3 kinase activity assay (Z-lyte, Ser/Thr 18 peptide)
CLK3, sequence (P49761 whole entry): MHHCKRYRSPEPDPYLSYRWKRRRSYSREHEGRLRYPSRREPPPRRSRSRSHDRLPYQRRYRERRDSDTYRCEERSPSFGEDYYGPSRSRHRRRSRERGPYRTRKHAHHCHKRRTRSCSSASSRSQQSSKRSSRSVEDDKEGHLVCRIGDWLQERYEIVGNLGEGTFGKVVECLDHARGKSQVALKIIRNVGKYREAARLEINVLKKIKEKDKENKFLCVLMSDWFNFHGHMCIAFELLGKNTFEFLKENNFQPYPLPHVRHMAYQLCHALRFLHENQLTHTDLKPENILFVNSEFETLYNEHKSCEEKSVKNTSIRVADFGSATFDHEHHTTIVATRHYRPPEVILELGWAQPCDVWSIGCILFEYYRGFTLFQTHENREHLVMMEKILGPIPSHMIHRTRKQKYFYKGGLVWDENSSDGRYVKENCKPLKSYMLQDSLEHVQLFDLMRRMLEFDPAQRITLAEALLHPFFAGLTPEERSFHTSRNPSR
Protocol: Each compound was dissolved in DMSO as a 10 mM stock and used to prepare compound source plates.
This is a non-radioactive assay using fluorescence resonance energy transfer (FRET) between coumarin and fluorescein to detect kinase activity which is represented as a ratio of coumarin emission/fluorescein emission.
All reactions were performed in duplicate. Unphosphorylated (“0% Control”) and phosphorylated (“100% control”) forms of Ser/Thr 18 served as control reactions. Additionally, an 11-point dose-response curve of Staurosporine (1 uM top) was run to serve as a positive compound control.
After incubation, Development Reagent A was diluted in Development Buffer then added to the reaction and allowed to further incubate for one hour at room temperature.
Dose-response curves were generated and inhibitory concentration (IC50) values were calculated using non-linear regression curve fit in the Dotmatics' Studies Software (Bishops Stortford, UK).
Compounds were acoustically transferred on 1536-well plates (Echo 550, LabCyte) instrument. Kinase, peptide, and ATP reagents from the Z′-LYTE Kinase Assay Kits (Thermo Fisher) were dispensed onto the compound plates using an EL406 liquid dispenser (BioTek). Plates were incubated in the dark at room temperature for 1 hr. Development reagent was added to the plates and then incubated in the dark at room temperature for 1 hr. Fluorescence signal form the plate was then read using an EnVision Multilabel Plate Reader (Perkin Elmer).

all 50 cell lines = assay: CellTiter-Glo Viability Assay, average across all cell lines; type: cell-based; details: Homo sapiens; across all 50 cell lines; read-out: average EC50 for inhibition of cancer cell proliferation
Outline: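 4-day proliferation, 37° C/5% CO2; 300-3,000 cells/well; compound in duplicate vs DMSO controls. Panel: breast, colorectal, heme/lymphoid, liver, lung, ovarian, pancreatic, prostate lines. Read-out: CellTiter-Glo ATP luminescence, EC50 from dose-response.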

[7] = test system: liver cancer (3 cell lines); assay: CellTiter-Glo Viability Assay, liver cancer; type: cell-based; details: Homo sapiens, inhibition of cancer cell proliferation

`O=C1COc2cccc(c2)-c2cncc3[nH]c(nc23)-c2n[nH]c3ccc(cc23)-c2cncc(c2)N1` [Compound 56] was tested, and the EC50 ([1]; BXPC-3, BxPC3 cell line, read-out: Pancreatic cancer, EC50 BxPC3) was > 10 µM, the EC50 ([1]; CAPAN-1, Capan1 cell line, read-out: Pancreatic cancer, EC50 Capan1) was 3.62 µM and the EC50 ([1]; Capan-2, Capan2 cell line, read-out: Pancreatic cancer, EC50 Capan2) was > 10 µM. For the same molecule, the EC50 ([1]; MIA PaCa-2 cell line, read-out: Pancreatic cancer, EC50 MIA PaCa-2) was 0.697 µM, the EC50 ([1]; PANC 05.04 cell line, read-out: Pancreatic cancer, EC50 PANC 05.04) was > 10 µM and the EC50 ([1]; PANC-1 cell line, read-out: Pancreatic cancer, EC50 PANC-1) was > 10 µM. For the same molecule, the EC50 ([1]; UPAFII cell line, read-out: Pancreatic cancer, EC50 UPAFII) was > 10 µM, the EC50 (CLK2) was 0.0033 µM and the EC50 ([2]; PA-1, PA1 cell line, read-out: Ovarian cancer, EC50 (μM) PA1) was 0.767 µM. For the same molecule, the EC50 ([2]; TOV112D, TOV-112D cell line, read-out: Ovarian cancer, EC50 (μM) TOV-112D) was 1.45 µM, the EC50 ([2]; OV-90 cell line, read-out: Ovarian cancer, EC50 (μM) OV-90) was > 10 µM and the EC50 ([2]; OVCAR-3 cell line, read-out: Ovarian cancer, EC50 (μM) OVCAR-3) was 0.436 µM. For the same molecule, the EC50 ([3]; HCT-116, HCT116 cell line, read-out: Colorectal cancer, EC50 (μM) HCT116) was 3.81 µM, the EC50 ([3]; HT-29, HT29 cell line, read-out: Colorectal cancer, EC50 (μM) HT29) was > 10 µM and the EC50 ([3]; SW-620, SW620 cell line, read-out: Colorectal cancer, EC50 (μM) SW620) was 1.09 µM. The EC50 ([3]; DLD-1 cell line, read-out: Colorectal cancer, EC50 (μM) DLD-1) was 9.99 µM, the EC50 ([3]; SW48 cell line, read-out: Colorectal cancer, EC50 (μM) SW48) was 5.05 µM and the EC50 ([3]; SW480 cell line, read-out: Colorectal cancer, EC50 (μM) SW480) was 1.38 µM. It also gave an EC50 ([4]; DND41, DND-41 cell line, read-out: Haematopoietic & Lymphoid tumors, EC50 (μM) DND-41) of 0.959 µM, an EC50 ([4]; MV4-11, MV-4-11 cell line, read-out: Haematopoietic & Lymphoid tumors, EC50 (μM) MV-4-11) of 0.121 µM and an EC50 ([4]; Rec1, REC-1 cell line, read-out: Haematopoietic & Lymphoid tumors, EC50 (μM) REC-1) of 5.51 µM. For the same molecule, the EC50 ([4]; SU-DHL-4, SUDHL4 cell line, read-out: Haematopoietic & Lymphoid tumors, EC50 (μM) SUDHL4) was 0.365 µM, the EC50 ([4]; HL-60 cell line, read-out: Haematopoietic & Lymphoid tumors, EC50 (μM) HL-60) was 3.21 µM and the EC50 ([4]; JM1 cell line, read-out: Haematopoietic & Lymphoid tumors, EC50 (μM) JM1) was 0.394 µM. For the same molecule, the EC50 ([4]; JURKAT, Clone E6-1 cell line, read-out: Haematopoietic & Lymphoid tumors, EC50 (μM) JURKAT, Clone E6-1) was > 10 µM, the EC50 ([4]; JeKo-1 cell line, read-out: Haematopoietic & Lymphoid tumors, EC50 (μM) JeKo-1) was 0.39 µM and the EC50 ([4]; KASUMI-1 cell line, read-out: Haematopoietic & Lymphoid tumors, EC50 (μM) KASUMI-1) was 0.767 µM. The EC50 ([4]; Loucy cell line, read-out: Haematopoietic & Lymphoid tumors, EC50 (μM) Loucy) was 0.485 µM, the EC50 ([4]; MOLT-4 cell line, read-out: Haematopoietic & Lymphoid tumors, EC50 (μM) MOLT-4) was > 10 µM and the EC50 ([4]; TF-1 cell line, read-out: Haematopoietic & Lymphoid tumors, EC50 (μM) TF-1) was > 10 µM. For the same molecule, the EC50 ([4]; TOLEDO cell line, read-out: Haematopoietic & Lymphoid tumors, EC50 (μM) TOLEDO) was 0.402 µM, the EC50 (HCC1599) was 0.248 µM and the EC50 (MCF7) was > 10 µM. The EC50 (MDA-MB-231-Luc) was 6.63 µM, the EC50 (ZR-75-1) was 6.91 µM and the EC50 (CAMA1) was 1.53 µM. It also gave an EC50 (BT-549) of 0.328 µM, an EC50 (DU4475) of 0.042 µM and an EC50 (T47D) of 3.22 µM. For the same molecule, the EC50 ([5]; DU-145, read-out: Prostate cancer EC50 Du-145) was > 10 µM, the EC50 ([5]; PC-3, PC3 cell line, inhibition of cancer cell proliferation, read-out: Prostate cancer EC50 PC3) was 3.37 µM and the EC50 ([5]; 22Rv1 cell line, inhibition of cancer cell proliferation, read-out: Prostate cancer EC50 22Rv1) was 7.9 µM. For the same molecule, the EC50 ([5]; LNCap clone FGC cell line, inhibition of cancer cell proliferation, read-out: Prostate cancer EC50 LNCap clone FGC) was > 10 µM, the EC50 ([5]; VCaP (Sigma) cell line, inhibition of cancer cell proliferation, read-out: Prostate cancer EC50 VCaP (Sigma)) was > 10 µM and the EC50 ([6]; A-427, A427 cell line, read-out: Lung cancer, EC50 (μM) A427) was 1.31 µM. The EC50 ([6]; HCC78, HCC-78 cell line, read-out: Lung cancer, EC50 (μM) HCC-78) was > 10 µM, the EC50 ([6]; NCI-H460 cell line, read-out: Lung cancer, EC50 (μM) NCI-H460) was > 10 µM and the EC50 ([6]; NCI-H522 cell line, read-out: Lung cancer, EC50 (μM) NCI-H522) was 0.224 µM. It also gave an EC50 (CLK3) of 0.0163 µM, an EC50 (all 50 cell lines) of 5.05 µM and an EC50 ([7]; SNU-398, SNU398 cell line, read-out: Liver cancer, EC50 SNU398) of 0.16 µM. For the same molecule, the EC50 ([7]; HEPG2 cell line, read-out: Liver cancer, EC50 HEPG2) was > 10 µM and the EC50 ([7]; PLC/PRF/5 cell line, read-out: Liver cancer, EC50 PLC/PRF/5) was > 10 µM.
